Experimental data taken from patent US20240358693A1, “METHODS OF TREATING PAIN” (Aisa Pharma, Inc., priority 2023, published 2024).

System: participants with SSc-RP
Test: Average duration of weekly RP attacks (minutes)
Format: in vivo, human
From the text: The absolute change in average duration of weekly RP attacks from baseline to the end of each dosing period was and will be a secondary outcome variable. The sponsor-developed participant-informed diary was and will be used to record data. Average duration of weekly RP attacks is defined as the total duration of RP attacks divided by total number of RP attacks within the last 7 days of each dosing period. Total duration of RP attacks during the last 7 days of screening period divided by the total number of RP attacks will be used as baseline for the analysis of all periods. The variable will be calculated similar to frequency data as before.

[1] = Pooled Cilnidipine 10 mg and Cilnidipine 10 mg + Tadalafil 5 mg, Excluding Outliers, by Baseline RCS, subgroup 2, ITT Population - Part A
[2] = Pooled Cilnidipine 10 mg and Cilnidipine 10 mg + Tadalafil 5 mg, ITT Part A
[3] = Pooled Cilnidipine 10 mg and Cilnidipine 10 mg + Tadalafil 5 mg, by Baseline RCS, subgroup 1, ITT Population - Part A
[4] = Pooled Cilnidipine 10 mg and Cilnidipine 10 mg + Tadalafil 5 mg, by Baseline RCS, subgroup 2, ITT Population - Part A
[5] = Pooled Cilnidipine 20 mg and Cilnidipine 20 mg + Tadalafil 5 mg, n=4, Excluding Outliers, ITT Part A
[6] = Pooled Cilnidipine 20 mg and Cilnidipine 20 mg + Tadalafil 5 mg, n=4, ITT Part A
[7] = Pooled Cilnidipine 20 mg and Cilnidipine 20 mg + Tadalafil 5 mg, Baseline RCS subgroup 1 (unnamed), ITT Part A
[8] = Pooled Cilnidipine 20 mg and Cilnidipine 20 mg + Tadalafil 5 mg, Baseline RCS subgroup 2 (unnamed), ITT Part A
[9] = Pooled Cilnidipine 20 mg and Cilnidipine 20 mg + Tadalafil 5 mg, Excluding Outliers, Baseline RCS subgroup 1 (unnamed), ITT Part A
[10] = Pooled Cilnidipine 20 mg and Cilnidipine 20 mg + Tadalafil 5 mg, Excluding Outliers, Baseline RCS subgroup 2 (unnamed), ITT Part A
[11] = Pooled Cilnidipine 20 mg and Cilnidipine 20 mg + Tadalafil 5 mg, Excluding Outliers, ITT Population - Part A
[12] = Pooled Cilnidipine 20 mg and Cilnidipine 20 mg + Tadalafil 5 mg, Excluding Outliers, by Baseline RCS, subgroup 1, ITT Population - Part A

## COCCOC(=O)C1=C(C)NC(C)=C(C(=O)OC/C=C/c2ccccc2)C1c1cccc([N+](=O)[O-])c1 (stereo not shown) [Cilnidipine, cilnidipine]
[1]
  Average Duration of Weekly RP Attacks (All Attacks) Change from Baseline, Mean: -20.38 min
  Average Duration of Weekly RP Attacks (All Attacks) Change from Baseline, Median: -20.38 min
  Average Duration of Weekly RP Attacks (All Attacks) Percent Change from Baseline, Mean: −37.36%
  Average Duration of Weekly RP Attacks (All Attacks) Percent Change from Baseline, Median: −37.36%
  Average Duration of Weekly RP Attacks (All Attacks), Mean: 34.17 min
  Average Duration of Weekly RP Attacks (All Attacks), Median: 34.17 min
[2]
  Average Duration of Weekly RP Attacks (All Attacks) Change from Baseline, Mean: -9.54 min
  Average Duration of Weekly RP Attacks (All Attacks) Change from Baseline, Median: -8.48 min
  Average Duration of Weekly RP Attacks (All Attacks) Percent Change from Baseline, Mean: −19.10%
  Average Duration of Weekly RP Attacks (All Attacks) Percent Change from Baseline, Median: −21.20%
  Average Duration of Weekly RP Attacks (All Attacks), Mean: 27.90 min
  Average Duration of Weekly RP Attacks (All Attacks), Median: 31.52 min
[3]
  Average Duration of Weekly RP Attacks (All Attacks) Change from Baseline, Mean: -4.13 min
  Average Duration of Weekly RP Attacks (All Attacks) Change from Baseline, Median: -4.13 min
  Average Duration of Weekly RP Attacks (All Attacks) Percent Change from Baseline, Mean: −9.97%
  Average Duration of Weekly RP Attacks (All Attacks) Percent Change from Baseline, Median: −9.97%
  Average Duration of Weekly RP Attacks (All Attacks), Mean: 24.76 min
  Average Duration of Weekly RP Attacks (All Attacks), Median: 24.76 min
[4]
  Average Duration of Weekly RP Attacks (All Attacks) Change from Baseline, Mean: -20.38 min
  Average Duration of Weekly RP Attacks (All Attacks) Change from Baseline, Median: -20.38 min
  Average Duration of Weekly RP Attacks (All Attacks) Percent Change from Baseline, Mean: −37.36%
  Average Duration of Weekly RP Attacks (All Attacks) Percent Change from Baseline, Median: −37.36%
  Average Duration of Weekly RP Attacks (All Attacks), Mean: 34.17 min
  Average Duration of Weekly RP Attacks (All Attacks), Median: 34.17 min
[5]
  Average Duration of Weekly Symptomatic RP Attacks, Change from Baseline, Mean: -7.51 min
  Average Duration of Weekly Symptomatic RP Attacks, Change from Baseline, Median: -3.55 min
  Average Duration of Weekly Symptomatic RP Attacks, Mean: 27.98 min
  Average Duration of Weekly Symptomatic RP Attacks, Median: 22.96 min
  Average Duration of Weekly Symptomatic RP Attacks, Percent Change from Baseline, Mean: −16.40%
  Average Duration of Weekly Symptomatic RP Attacks, Percent Change from Baseline, Median: −7.30%
[6]
  Average Duration of Weekly Symptomatic RP Attacks, Change from Baseline, Mean: -7.51 min
  Average Duration of Weekly Symptomatic RP Attacks, Change from Baseline, Median: -3.55 min
  Average Duration of Weekly Symptomatic RP Attacks, Mean: 27.98 min
  Average Duration of Weekly Symptomatic RP Attacks, Median: 22.96 min
  Average Duration of Weekly Symptomatic RP Attacks, Percent Change from Baseline, Mean: −16.40%
  Average Duration of Weekly Symptomatic RP Attacks, Percent Change from Baseline, Median: −7.30%
[7]
  Average Duration of Weekly Symptomatic RP Attacks, Change from Baseline, Mean: -1.01 min
  Average Duration of Weekly Symptomatic RP Attacks, Change from Baseline, Median: 3.24 min
  Average Duration of Weekly Symptomatic RP Attacks, Mean: 16.31 min
  Average Duration of Weekly Symptomatic RP Attacks, Median: 15.46 min
  Average Duration of Weekly Symptomatic RP Attacks, Percent Change from Baseline, Mean: −11.86%
  Average Duration of Weekly Symptomatic RP Attacks, Percent Change from Baseline, Median: 15.41%
[8]
  Average Duration of Weekly Symptomatic RP Attacks, Change from Baseline, Mean: -27.00 min
  Average Duration of Weekly Symptomatic RP Attacks, Change from Baseline, Median: -27.00 min
  Average Duration of Weekly Symptomatic RP Attacks, Mean: 63.00 min
  Average Duration of Weekly Symptomatic RP Attacks, Median: 63.00 min
  Average Duration of Weekly Symptomatic RP Attacks, Percent Change from Baseline, Mean: −30.00%
  Average Duration of Weekly Symptomatic RP Attacks, Percent Change from Baseline, Median: −30.00%
[9]
  Average Duration of Weekly Symptomatic RP Attacks, Change from Baseline, Mean: -1.01 min
  Average Duration of Weekly Symptomatic RP Attacks, Change from Baseline, Median: 3.24 min
  Average Duration of Weekly Symptomatic RP Attacks, Mean: 16.31 min
  Average Duration of Weekly Symptomatic RP Attacks, Median: 15.46 min
  Average Duration of Weekly Symptomatic RP Attacks, Percent Change from Baseline, Mean: −11.86%
  Average Duration of Weekly Symptomatic RP Attacks, Percent Change from Baseline, Median: 15.41%
[10]
  Average Duration of Weekly Symptomatic RP Attacks, Change from Baseline, Mean: -27.00 min
  Average Duration of Weekly Symptomatic RP Attacks, Change from Baseline, Median: -27.00 min
  Average Duration of Weekly Symptomatic RP Attacks, Mean: 63.00 min
  Average Duration of Weekly Symptomatic RP Attacks, Median: 63.00 min
  Average Duration of Weekly Symptomatic RP Attacks, Percent Change from Baseline, Mean: −30.00%
  Average Duration of Weekly Symptomatic RP Attacks, Percent Change from Baseline, Median: −30.00%
[11]
  Average Duration of Weekly RP Attacks (All Attacks) Change from Baseline, Mean: -4.77 min
  Average Duration of Weekly RP Attacks (All Attacks) Change from Baseline, Median: -2.73 min
  Average Duration of Weekly RP Attacks (All Attacks) Percent Change from Baseline, Mean: −13.86%
  Average Duration of Weekly RP Attacks (All Attacks) Percent Change from Baseline, Median: −2.74%
  Average Duration of Weekly RP Attacks (All Attacks), Mean: 27.61 min
  Average Duration of Weekly RP Attacks (All Attacks), Median: 22.36 min
[12]
  Average Duration of Weekly RP Attacks (All Attacks) Change from Baseline, Mean: 0.00 min
  Average Duration of Weekly RP Attacks (All Attacks) Change from Baseline, Median: 2.16 min
  Average Duration of Weekly RP Attacks (All Attacks) Percent Change from Baseline, Mean: −10.70%
  Average Duration of Weekly RP Attacks (All Attacks) Percent Change from Baseline, Median: 17.86%
  Average Duration of Weekly RP Attacks (All Attacks), Mean: 15.91 min
  Average Duration of Weekly RP Attacks (All Attacks), Median: 14.27 min
Pooled Cilnidipine 20 mg and Cilnidipine 20 mg + Tadalafil 5 mg, Excluding Outliers, by Baseline RCS, subgroup 2, ITT Population - Part A
  Average Duration of Weekly RP Attacks (All Attacks) Change from Baseline, Mean: -19.09 min
